What was measured:
Experiment in all cases: relative viability (nuclei count vs DMSO), 5 days (fraction); higher = more cells survive
Vemurafenib + Phenformin = compound: CCCS(=O)(=O)Nc1ccc(F)c(C(=O)c2c[nH]c3ncc(-c4ccc(Cl)cc4)cc23)c1F [Vemurafenib] + N=C(N)NC(=N)NCCc1ccccc1 [Phenformin] (partner 250 µM)
In short: (§1)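 Relative viability equals treated-well nuclei counts divided by vehicle-well nuclei counts. Counts came from 4× images of lung cancer cell lines grown in 1536-well plates for 5 days after pin-tool dosing on the day after seeding. Dosing used one drug alone or a fixed anchor-drug dose plus five library-drug doses (not always all listed) in √10 steps, and values are medians of duplicate plates.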

Alpelisib + Trametinib = compound: Cc1nc(NC(=O)N2CCC[C@H]2C(N)=O)sc1-c1ccnc(C(C)(C)C(F)(F)F)c1 [Alpelisib] + CC(=O)Nc1cccc(-n2c(=O)n(C3CC3)c(=O)c3c(Nc4ccc(I)cc4F)n(C)c(=O)c(C)c32)c1 [Trametinib] (partner 0.02 µM)
In short: as §1

Alpelisib + Navitoclax = compound: Cc1nc(NC(=O)N2CCC[C@H]2C(N)=O)sc1-c1ccnc(C(C)(C)C(F)(F)F)c1 [Alpelisib] + CC1(C)CCC(c2ccc(Cl)cc2)=C(CN2CCN(c3ccc(C(=O)NS(=O)(=O)c4ccc(N[C@H](CCN5CCOCC5)CSc5ccccc5)c(S(=O)(=O)C(F)(F)F)c4)cc3)CC2)C1 [Navitoclax] (partner 0.5 µM)
In short: as §1

Alpelisib + Vorinostat = compound: Cc1nc(NC(=O)N2CCC[C@H]2C(N)=O)sc1-c1ccnc(C(C)(C)C(F)(F)F)c1 [Alpelisib] + O=C(CCCCCCC(=O)Nc1ccccc1)NO [Vorinostat] (partner 1 µM)
In short: as §1

Row | Cell Line | relative viability (Vemurafenib + Phenformin; first compound 0.03162 µM) | relative viability (Vemurafenib + Phenformin; first compound 0.1 µM) | relative viability (Vemurafenib + Phenformin; first compound 0.3162 µM) | relative viability (Vemurafenib + Phenformin; first compound 1 µM) | relative viability (Alpelisib + Trametinib; first compound 0.04 µM) | relative viability (Alpelisib + Trametinib; first compound 0.1265 µM) | relative viability (Alpelisib + Trametinib; first compound 0.4 µM) | relative viability (Alpelisib + Trametinib; first compound 1.265 µM) | relative viability (Alpelisib + Trametinib; first compound 4 µM) | relative viability (Alpelisib + Navitoclax; first compound 0.04 µM) | relative viability (Alpelisib + Navitoclax; first compound 0.1265 µM) | relative viability (Alpelisib + Navitoclax; first compound 0.4 µM) | relative viability (Alpelisib + Navitoclax; first compound 1.265 µM) | relative viability (Alpelisib + Navitoclax; first compound 4 µM) | relative viability (Alpelisib + Vorinostat; first compound 0.04 µM) | relative viability (Alpelisib + Vorinostat; first compound 0.1265 µM) | relative viability (Alpelisib + Vorinostat; first compound 0.4 µM) | relative viability (Alpelisib + Vorinostat; first compound 1.265 µM) | relative viability (Alpelisib + Vorinostat; first compound 4 µM)
1 | NCI-H1734 | 0.403 | 0.358 | 0.359 | 0.356 | 0.566 | 0.626 | 0.624 | 0.533 | 0.394 | 0.835 | 0.758 | 0.794 | 0.714 | 0.47 | 0.726 | 0.686 | 0.822 | 0.642 | 0.375
2 | HCC-366 | 0.61 | 0.565 | 0.247 | 0.593 | 0.337 | 0.289 | 0.233 | 0.138 | 0.13 | 1.02 | 1.08 | 1.05 | 0.681 | 0.334 | 0.429 | 0.356 | 0.353 | 0.208 | 0.156
3 | LXF-289 | 0.456 | 0.457 | 0.435 | 0.551 | 0.632 | 0.632 | 0.71 | 0.609 | 0.694 | 0.91 | 0.972 | 0.968 | 0.917 | 0.939 | 0.741 | 0.685 | 0.942 | 0.723 | 0.766
4 | ChaGo-K-1 | 0.472 | 0.545 | 0.352 | 0.481 | 0.725 | 0.963 | 0.856 | 0.756 | 0.586 | 1.01 | – | 1.14 | 0.731 | 0.583 | 0.698 | 0.759 | 0.825 | 0.573 | 0.564
5 | NCI-H838 | 0.506 | 0.581 | – | 0.672 | 0.419 | 0.483 | 0.515 | 0.405 | 0.421 | 1.02 | 1.08 | 1.15 | 1.04 | 1.01 | 0.675 | 0.697 | 0.72 | 0.642 | 0.606
6 | NCI-H1993 | 0.532 | – | 0.595 | 0.468 | 0.539 | 0.477 | 0.5 | 0.483 | 0.49 | 1.11 | 0.879 | 0.874 | 0.659 | 0.702 | 0.751 | 0.815 | 0.909 | 0.596 | 0.64
7 | NCI-H1437 | 0.258 | 0.315 | 0.29 | 0.309 | 0.434 | 0.492 | 0.539 | 0.382 | 0.304 | 1.09 | 1.13 | 1.03 | 1.01 | 1.03 | 0.886 | 0.886 | 0.963 | 0.734 | 0.692
8 | NCI-H647 | 0.439 | 0.404 | 0.446 | 0.376 | 0.44 | 0.473 | 0.523 | 0.348 | 0.481 | 1.04 | 1.03 | 1.22 | 0.83 | 0.948 | 0.772 | 0.608 | 0.613 | 0.263 | 0.427
9 | HCC-78 | 0.656 | 0.618 | 0.817 | 0.727 | 0.578 | 0.779 | 0.816 | 0.458 | 0.53 | 0.745 | 0.609 | 0.738 | 0.373 | 0.518 | 0.363 | 0.392 | 0.478 | 0.326 | 0.342

Source: the supplement of paper PMC10307832
